Measured values as given in publication PMC8277928, “Influence of Terminal Functionality on the Crystal Packing Behaviour and Cytotoxicity of Aromatic Oligoamides” (Frontiers in Chemistry, 2021).
Where two headings read alike, the source gives them in different places.

Key:
[1] = tested on: A2780 cisplatin-sensitive ovarian carcinoma cells; assay: MTT cytotoxicity (chemosensitivity) assay, 96 h; type: cell-based, human; conditions: for IC50: 96 h incubation, MTT, 37°C, 5% CO2, read-out: IC50 values (μM) ± SD, A2780; for Selectivity Index (SI), A2780 compared to PNT-2: IC50 PNT-2 divided by IC50 A2780, * = minimum SI value
Experimental: (§1) The IC50 values were obtained via the MTT assay after a 96 h incubation period of each compound with the cells at 37°C and 5% CO2 (Table 2; Figure 6). […]
(§2) In vitro chemosensitivity assays were performed against human ovarian carcinoma (A2780), cisplatin-resistant human ovarian carcinoma (A2780cisR) and human breast adenocarcinomas (MCF-7 and MDA-MB-231). Additionally, growth inhibitory effects were also tested against non-malignant prostate cell line immortalised with SV40, PNT-2. All cell lines were provided by the Institute of Cancer Therapeutics, University of Bradford and were routinely maintained as monolayer cultures in RPMI 1640 media supplemented with 10% foetal calf serum, sodium pyruvate (1 mM) and L-glutamine (2 mM). All assays were conducted in 96-well round bottom plates, with control lanes for media and 100% cell growth. Cell concentrations of 1 x 10^4 cells/mL were used, and 100 µL (or 100 µL media in control lane 1) of cell suspension were incubated for 24 h at 37 °C and 5% CO2 prior to drug exposure.
(§3) 100 mM stock solutions, which were further diluted with complete me dia to provide a range of final concentrations. After 24 h, 100 μL of the drug/media solutions were added to the plates (columns 3-12 drug concentrations, with 100 µL media in the control lanes), and then the plates incubated for 96 h at 37°C and 5% CO2. All drug solutions were added to the plates so that the final DMSO concentrations were <0.1% (v/v) in all cases. After 96 h, 3-(4,5-dimethylthiazol-2-yl)-2,5-diphenyltetrazolium bromide (MTT) (20 µL, 5 mg/mL) was added to each well and incubated for 3 h at 37 °C and 5% CO2. All solutions were then removed via pipette, 150 μL DMSO added to each well and the formazan crystals mixed thoroughly. A Thermo Scientific Multiscan EX microplate photometer was used to measure the absorbance of each well at 540 nm. Percentage cell viabilities were determined on a logarithmic scale, and the half maximal inhibitory concentration (IC50) determined from a plot of % cell survival versus concentration (µM). Each of the experiments was performed as duplicate technical repeats and triplicate experimental repeats, with mean values as the IC50 ± Standard Deviation (SD).

[2] = tested on: MDA-MB-231 breast adenocarcinoma cells; assay: MTT cytotoxicity (chemosensitivity) assay, 96 h; type: cell-based, human; conditions: for IC50: 96 h incubation, MTT, 37°C, 5% CO2, read-out: IC50 values (μM) ± SD, MDA-MB-231; for Selectivity Index (SI), MDA-MB-231 compared to PNT-2: IC50 PNT-2 divided by IC50 MDA-MB-231, * = minimum SI value
Experimental: as §1, §2, §3

[3] = tested on: MCF-7 breast adenocarcinoma cells; assay: MTT cytotoxicity (chemosensitivity) assay, 96 h; type: cell-based, human; conditions: for IC50: 96 h incubation, MTT, 37°C, 5% CO2, read-out: IC50 values (μM) ± SD, MCF-7; for Selectivity Index (SI), MCF-7 compared to PNT-2: IC50 PNT-2 divided by IC50 MCF-7, * = minimum SI value
Experimental: as §1, §2, §3

[4] = tested on: A2780cisR cisplatin-resistant ovarian carcinoma cells; assay: MTT cytotoxicity (chemosensitivity) assay, 96 h; type: cell-based, human; conditions: for IC50: 96 h incubation, MTT, 37°C, 5% CO2, read-out: IC50 values (μM) ± SD, A2780cisR; for Selectivity Index (SI), A2780cisR compared to PNT-2: IC50 PNT-2 divided by IC50 A2780cisR, * = minimum SI value
Experimental: as §1, §2, §3

[5] = tested on: PNT-2 non-malignant prostate cell line (immortalized with SV40); assay: MTT cytotoxicity (chemosensitivity) assay, 96 h, non-malignant cells; type: cell-based, human; conditions: 37°C, 5% CO2, read-out: IC50 values (μM) ± SD, PNT-2
Experimental: A SI value >1 indicates increased selectivity for the cancerous cell line over the non-malignant one, whilst a SI value <1 indicates the inverse (i.e., increased selectivity for the non-malignant cell line over the cancerous one). […]
as §2, §3

[6] = tested on: A2780, A2780cisR, MCF-7 and MDA-MB-231 cells; assay: MTT cytotoxicity assay, 96 h, range over all cancer cell lines; type: cell-based; conditions: Homo sapiens, read-out: IC50 values against all cell lines (range)
Experimental: as §1
as §2, with “Cell concentrations of 1 x 10^4 cells/mL were used, and 100 µL (or 100 µL media in control lane 1) of cell suspension were incubated for 24 h at 37 °C and 5% CO2 prior to drug exposure.” left out
100 mM stock solutions, which were further diluted with complete me dia to provide a range of final concentrations. […] A Thermo Scientific Multiscan EX microplate photometer was used to measure the absorbance of each well at 540 nm. Percentage cell viabilities were determined on a logarithmic scale, and the half maximal inhibitory concentration (IC50) determined from a plot of % cell survival versus concentration (µM). […]

[7] = Homo sapiens, PNT2, 96 h incubation

Row | SMILES | IC50 ([1]; Homo sapiens, A2780) [µM] | Selectivity Index (SI), A2780 compared to PNT-2 [1] | cytotoxicity in words, MDA-MB-231 ([2]; 96 h MTT) | IC50 ([2]; Homo sapiens, MDA-MB-231) [µM] | Selectivity Index (SI), MDA-MB-231 compared to PNT-2 [2] | cytotoxicity in words, MCF-7 ([3]; 96 h MTT) | IC50 ([3]; Homo sapiens, MCF7) [µM] | Selectivity Index (SI), MCF-7 compared to PNT-2 [3] | cytotoxicity in words, A2780cisR ([4]; 96 h MTT) | IC50 ([4]; Homo sapiens, A2780cisR) [µM] | IC50 [5, 7] [µM] | IC50 [6] [µM] | cytotoxicity in words, A2780 ([1]; 96 h MTT) | Selectivity Index (SI), A2780cisR compared to PNT-2 [4] | IC50 [1] [µM] | IC50 [2] [µM] | IC50 [3] [µM] | IC50 [4] [µM] | IC50 ([5]; 96 h incubation) [µM]
1 | CC(C)(C)OC(=O)Nc1ccccc1NC(=O)c1cccc(C(=O)Nc2ccccc2NC(=O)OC(C)(C)C)n1 [Compound 2] | 24 ± 0.9 | > 4.2 | moderate to non-cytotoxic | 69 ± 3 | > 1.4 | moderate to non-cytotoxic | 84 ± 3 | > 1.2 | moderate to non-cytotoxic | > 100 | > 100 |  |  |  |  |  |  |  | 
2 | CC(=O)Nc1ccccc1NC(=O)c1cccc(C(=O)Nc2ccccc2NC(C)=O)n1 [Compound 1] | 77 ± 5 | > 1.3 |  | 63 ± 4 | > 1.6 |  | > 100 |  |  | > 100 | > 100 | ≥ 63 |  |  |  |  |  |  | 
3 | Nc1ccccc1NC(=O)c1cccc(C(=O)Nc2ccccc2N)n1 [Compound 3] | > 100 |  |  | > 100 |  |  | > 100 |  |  | 61 ± 2 | > 100 |  | non-toxic | > 1.6 |  |  |  |  | 
4 | O=C1[O][Pt]2([NH][C@@H]3CCCC[C@H]3[NH]2)[O]C1=O [OXA, oxaliplatin, reference compound] |  | 2.6 |  |  | 0.5 |  |  | 0.5 |  |  |  |  |  | 0.6 | 0.505 ± 0.002 | 2.5 ± 0.6 | 2.6 ± 0.2 | 2.09 ± 0.03 | 1.3 ± 0.2
5 | N.N.O=C([O-])C1(C(=O)[O-])CCC1.[Pt+2] [CARB, carboplatin, reference compound] |  |  |  |  | 0.8 |  |  | > 0.3 |  |  |  |  |  | > 0.3 | 17 ± 1 | 33 ± 2 | > 100 | > 100 | 27 ± 2
6 | [NH2][Pt]([NH2])([Cl])[Cl] [CDDP, cisplatin, reference compound] |  |  |  |  | 2.8 |  |  | 5.6 |  |  |  |  |  | 0.6 | 1.3 ± 0.1 | 3.07 ± 0.02 | 1.5 ± 0.2 | 14 ± 1 | 8.5 ± 0.4
